Source: ChEMBL document CHEMBL4052645, “Discovery of potent and efficacious pyrrolopyridazines as dual JAK1/3 inhibitors” (Bioorg Med Chem Lett, 2017)

Tests used:
[1] = biological target: TGF-beta receptor type-2 (Homo sapiens) (UniProt P37173); experiment: Inhibition of wild-type human partial length TGFBR2 (I218 to K567 residues) expressed in bacterial expression system assessed as residual activity at 50 nM by Kinomescan method relative to control
[2] = biological target: Cyclin-dependent kinase 7 (Homo sapiens) (UniProt P50613); experiment: Inhibition of wild-type human full length CDK7 (M1 to L344 residues) expressed in mammalian expression system assessed as residual activity at 50 nM by Kinomescan method relative to control
Cyclin-dependent kinase 7 (Homo sapiens), sequence (P50613 whole entry, the tested form may be a part, canonical isoform): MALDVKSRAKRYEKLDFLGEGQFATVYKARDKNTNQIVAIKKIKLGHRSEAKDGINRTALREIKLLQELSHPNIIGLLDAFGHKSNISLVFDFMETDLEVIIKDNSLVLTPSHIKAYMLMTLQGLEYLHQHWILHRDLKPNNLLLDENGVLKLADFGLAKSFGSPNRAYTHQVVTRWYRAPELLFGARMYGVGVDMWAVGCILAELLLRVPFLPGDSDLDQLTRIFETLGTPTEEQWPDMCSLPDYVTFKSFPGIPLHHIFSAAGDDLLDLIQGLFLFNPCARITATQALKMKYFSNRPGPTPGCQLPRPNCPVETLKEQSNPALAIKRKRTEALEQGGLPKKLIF

[3] = biological target: Phosphatidylinositol 4,5-bisphosphate 3-kinase catalytic subunit gamma isoform (Homo sapiens) (UniProt P48736); experiment: Inhibition of wild-type human partial length PI3KCG (S144 to A1102 residues) expressed in mammalian expression system assessed as residual activity at 50 nM by Kinomescan method relative to control
[4] = biological target: Proto-oncogene tyrosine-protein kinase ROS (Homo sapiens) (UniProt P08922); experiment: Inhibition of wild-type human partial length ROS (A1921 to N2240 residues) expressed in bacterial expression system assessed as residual activity at 50 nM by Kinomescan method relative to control
[5] = biological target: Serine/threonine-protein kinase TNNI3K (Homo sapiens) (UniProt Q59H18); experiment: Inhibition of wild-type human HH498 (M1 to S835 residues) expressed in bacterial expression system assessed as residual activity at 50 nM by Kinomescan method relative to control
Serine/threonine-protein kinase TNNI3K (Homo sapiens), sequence (Q59H18 whole entry, the tested form may be a part): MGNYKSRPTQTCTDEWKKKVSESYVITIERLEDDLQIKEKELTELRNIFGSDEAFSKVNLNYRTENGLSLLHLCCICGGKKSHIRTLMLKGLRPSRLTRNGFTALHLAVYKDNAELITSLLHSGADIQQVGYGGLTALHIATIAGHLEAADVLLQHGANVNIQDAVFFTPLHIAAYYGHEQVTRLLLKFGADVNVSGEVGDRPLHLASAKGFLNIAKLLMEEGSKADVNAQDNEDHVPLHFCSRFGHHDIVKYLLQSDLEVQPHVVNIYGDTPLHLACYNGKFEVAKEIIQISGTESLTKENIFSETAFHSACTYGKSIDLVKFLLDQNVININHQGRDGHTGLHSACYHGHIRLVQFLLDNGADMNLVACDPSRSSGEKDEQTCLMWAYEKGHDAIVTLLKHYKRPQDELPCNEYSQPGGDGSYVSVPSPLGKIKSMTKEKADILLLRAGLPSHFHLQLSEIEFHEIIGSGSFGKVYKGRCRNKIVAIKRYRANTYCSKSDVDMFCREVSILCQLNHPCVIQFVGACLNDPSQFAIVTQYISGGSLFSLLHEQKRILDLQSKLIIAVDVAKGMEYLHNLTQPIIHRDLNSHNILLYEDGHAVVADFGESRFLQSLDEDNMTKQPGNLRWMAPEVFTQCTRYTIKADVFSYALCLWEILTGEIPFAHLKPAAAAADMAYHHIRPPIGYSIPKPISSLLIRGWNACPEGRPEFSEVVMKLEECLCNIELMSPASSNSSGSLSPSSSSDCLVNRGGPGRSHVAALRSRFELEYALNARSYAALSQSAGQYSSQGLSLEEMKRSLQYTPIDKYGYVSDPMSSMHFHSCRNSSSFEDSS

[6] = biological target: Fibroblast growth factor receptor 2 (Homo sapiens) (UniProt P21802); experiment: Inhibition of wild-type human partial length FGFR2 (D457 to E769 residues) expressed in bacterial expression system assessed as residual activity at 50 nM by Kinomescan method relative to control
[7] = biological target: Mitogen-activated protein kinase 10 (Homo sapiens) (UniProt P53779); experiment: Inhibition of wild-type human partial length JNK3 (V28 to Q422 residues) expressed in mammalian expression system assessed as residual activity at 50 nM by Kinomescan method relative to control
[8] = biological target: Ephrin type-A receptor 5 (Homo sapiens) (UniProt P54756); experiment: Inhibition of wild-type human partial length EPHA5 (T627 to V930 residues) expressed in bacterial expression system assessed as residual activity at 50 nM by Kinomescan method relative to control
[9] = biological target: Mitogen-activated protein kinase 8 (Homo sapiens) (UniProt P45983); experiment: Inhibition of wild-type human full length JNK1 (M1 to Q384 residues) expressed in mammalian expression system assessed as residual activity at 50 nM by Kinomescan method relative to control
[10] = biological target: Serine/threonine-protein kinase Chk1 (Homo sapiens) (UniProt O14757); experiment: Inhibition of wild-type human partial length CHK1 (M1 to G289 residues) expressed in bacterial expression system assessed as residual activity at 50 nM by Kinomescan method relative to control
[11] = biological target: Leukocyte tyrosine kinase receptor (Homo sapiens) (UniProt P29376); experiment: Inhibition of wild-type human partial length LTK (P422 to S744 residues) expressed in bacterial expression system assessed as residual activity at 50 nM by Kinomescan method relative to control
[12] = biological target: Serine/threonine-protein kinase DCLK1 (Homo sapiens) (UniProt O15075); experiment: Inhibition of wild-type human partial length DCAMKL1 (L270 to A662 residues) expressed in mammalian expression system assessed as residual activity at 50 nM by Kinomescan method relative to control
Serine/threonine-protein kinase DCLK1 (Homo sapiens), sequence (O15075 whole entry, the tested form may be a part): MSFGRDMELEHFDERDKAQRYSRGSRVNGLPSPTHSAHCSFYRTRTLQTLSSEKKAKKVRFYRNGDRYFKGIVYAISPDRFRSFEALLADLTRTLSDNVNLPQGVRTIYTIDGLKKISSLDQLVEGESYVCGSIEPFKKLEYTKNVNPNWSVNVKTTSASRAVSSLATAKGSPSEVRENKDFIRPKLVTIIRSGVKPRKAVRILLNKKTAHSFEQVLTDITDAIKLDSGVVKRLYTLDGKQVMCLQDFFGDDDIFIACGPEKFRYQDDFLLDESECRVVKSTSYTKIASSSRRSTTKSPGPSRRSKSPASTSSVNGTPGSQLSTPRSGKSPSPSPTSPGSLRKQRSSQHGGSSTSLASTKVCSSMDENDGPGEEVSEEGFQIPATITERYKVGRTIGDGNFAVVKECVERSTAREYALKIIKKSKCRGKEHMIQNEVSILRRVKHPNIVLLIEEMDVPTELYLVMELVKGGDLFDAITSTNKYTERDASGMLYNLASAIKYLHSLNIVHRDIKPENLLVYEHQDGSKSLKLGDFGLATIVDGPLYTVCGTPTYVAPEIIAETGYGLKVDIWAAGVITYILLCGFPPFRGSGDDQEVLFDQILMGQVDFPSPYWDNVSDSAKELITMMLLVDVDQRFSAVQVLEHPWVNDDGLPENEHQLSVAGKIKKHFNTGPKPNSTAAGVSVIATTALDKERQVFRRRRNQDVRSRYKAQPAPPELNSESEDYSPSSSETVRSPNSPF

[13] = biological target: Serine/threonine-protein kinase PAK 1 (Homo sapiens) (UniProt Q13153); experiment: Inhibition of wild-type human partial length PAK1 (S149 to H545 residues) expressed in bacterial expression system assessed as residual activity at 50 nM by Kinomescan method relative to control
[14] = biological target: Non-receptor tyrosine-protein kinase TYK2 (Homo sapiens, UniProt P29597); experiment: Inhibition of His-tagged TYK2 (unknown origin) after 3 hrs by Caliper assay
Non-receptor tyrosine-protein kinase TYK2, sequence (P29597 whole entry, the tested form may be a part): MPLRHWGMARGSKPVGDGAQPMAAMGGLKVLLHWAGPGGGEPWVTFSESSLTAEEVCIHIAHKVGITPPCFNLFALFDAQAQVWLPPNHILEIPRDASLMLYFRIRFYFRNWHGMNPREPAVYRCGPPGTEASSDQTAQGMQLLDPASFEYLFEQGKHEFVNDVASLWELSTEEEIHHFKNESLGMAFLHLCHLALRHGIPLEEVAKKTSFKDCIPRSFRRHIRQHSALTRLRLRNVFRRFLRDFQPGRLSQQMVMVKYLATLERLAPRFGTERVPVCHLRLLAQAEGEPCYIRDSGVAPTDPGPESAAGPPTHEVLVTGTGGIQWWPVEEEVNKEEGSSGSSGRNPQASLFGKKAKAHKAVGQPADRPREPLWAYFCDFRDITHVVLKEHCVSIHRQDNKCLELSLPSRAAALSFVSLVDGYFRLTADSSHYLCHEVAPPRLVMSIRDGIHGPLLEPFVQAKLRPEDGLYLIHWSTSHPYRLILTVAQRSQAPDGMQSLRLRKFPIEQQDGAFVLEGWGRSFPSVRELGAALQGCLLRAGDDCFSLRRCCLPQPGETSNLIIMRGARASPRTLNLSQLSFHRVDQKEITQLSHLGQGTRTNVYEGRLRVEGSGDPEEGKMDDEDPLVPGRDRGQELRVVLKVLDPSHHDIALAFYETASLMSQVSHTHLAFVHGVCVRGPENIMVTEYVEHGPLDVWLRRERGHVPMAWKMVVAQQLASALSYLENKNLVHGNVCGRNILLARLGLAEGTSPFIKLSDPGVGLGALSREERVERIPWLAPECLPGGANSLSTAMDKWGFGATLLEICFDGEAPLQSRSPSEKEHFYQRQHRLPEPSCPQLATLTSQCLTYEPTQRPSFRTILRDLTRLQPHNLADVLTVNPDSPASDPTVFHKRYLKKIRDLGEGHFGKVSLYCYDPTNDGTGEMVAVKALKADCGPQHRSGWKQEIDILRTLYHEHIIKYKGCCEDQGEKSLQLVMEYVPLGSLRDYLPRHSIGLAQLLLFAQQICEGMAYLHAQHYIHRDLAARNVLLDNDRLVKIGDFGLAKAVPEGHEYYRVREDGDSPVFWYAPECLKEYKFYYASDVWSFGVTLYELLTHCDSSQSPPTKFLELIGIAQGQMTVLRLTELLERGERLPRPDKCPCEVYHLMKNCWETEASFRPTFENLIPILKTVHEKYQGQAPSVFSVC

[15] = biological target: Serine/threonine-protein kinase MARK2 (Homo sapiens) (UniProt Q7KZI7); experiment: Inhibition of wild-type human partial length MARK2 (M1 to R450 residues) expressed in bacterial expression system assessed as residual activity at 50 nM by Kinomescan method relative to control
[16] = biological target: Focal adhesion kinase 1 (Homo sapiens) (UniProt Q05397); experiment: Inhibition of wild-type human partial length FAK (D402 to R696 residues) expressed in bacterial expression system assessed as residual activity at 50 nM by Kinomescan method relative to control
[17] = biological target: Tyrosine-protein kinase Yes (Homo sapiens) (UniProt P07947); experiment: Inhibition of wild-type human partial length YES (T257 to L543 residues) expressed in bacterial expression system assessed as residual activity at 50 nM by Kinomescan method relative to control
[18] = biological target: Ribosomal protein S6 kinase alpha-3 (Homo sapiens) (UniProt P51812); experiment: Inhibition of wild-type human partial length N-terminal RSK2 kinase domain 1 (M1 to D394 residues) expressed in mammalian expression system assessed as residual activity at 50 nM by Kinomescan method relative to control
[19] = biological target: Homeodomain-interacting protein kinase 1 (Homo sapiens) (UniProt Q86Z02); experiment: Inhibition of wild-type human partial length HIPK1 (M146 to I555 residues) expressed in mammalian expression system assessed as residual activity at 50 nM by Kinomescan method relative to control
[20] = biological target: Tyrosine-protein kinase SYK (Homo sapiens) (UniProt P43405); experiment: Inhibition of wild-type human partial length SYK (D354 to N635 residues) expressed in bacterial expression system assessed as residual activity at 50 nM by Kinomescan method relative to control
JAK2 = JAK2 (Homo sapiens, UniProt O60674); experiment: Inhibition of human JAK2 (A829 to G1132 residues) expressed in mammalian expression system assessed as residual activity at 50 nM by KINOMEscan assay relative to control; conditions: read-out: Activity
[21] = biological target: Tyrosine-protein kinase receptor UFO (Homo sapiens) (UniProt P30530); experiment: Inhibition of wild-type human partial length AXL (R497 to Y821 residues) expressed in bacterial expression system assessed as residual activity at 50 nM by Kinomescan method relative to control
Tyrosine-protein kinase receptor UFO (Homo sapiens), sequence (P30530 whole entry, the tested form may be a part): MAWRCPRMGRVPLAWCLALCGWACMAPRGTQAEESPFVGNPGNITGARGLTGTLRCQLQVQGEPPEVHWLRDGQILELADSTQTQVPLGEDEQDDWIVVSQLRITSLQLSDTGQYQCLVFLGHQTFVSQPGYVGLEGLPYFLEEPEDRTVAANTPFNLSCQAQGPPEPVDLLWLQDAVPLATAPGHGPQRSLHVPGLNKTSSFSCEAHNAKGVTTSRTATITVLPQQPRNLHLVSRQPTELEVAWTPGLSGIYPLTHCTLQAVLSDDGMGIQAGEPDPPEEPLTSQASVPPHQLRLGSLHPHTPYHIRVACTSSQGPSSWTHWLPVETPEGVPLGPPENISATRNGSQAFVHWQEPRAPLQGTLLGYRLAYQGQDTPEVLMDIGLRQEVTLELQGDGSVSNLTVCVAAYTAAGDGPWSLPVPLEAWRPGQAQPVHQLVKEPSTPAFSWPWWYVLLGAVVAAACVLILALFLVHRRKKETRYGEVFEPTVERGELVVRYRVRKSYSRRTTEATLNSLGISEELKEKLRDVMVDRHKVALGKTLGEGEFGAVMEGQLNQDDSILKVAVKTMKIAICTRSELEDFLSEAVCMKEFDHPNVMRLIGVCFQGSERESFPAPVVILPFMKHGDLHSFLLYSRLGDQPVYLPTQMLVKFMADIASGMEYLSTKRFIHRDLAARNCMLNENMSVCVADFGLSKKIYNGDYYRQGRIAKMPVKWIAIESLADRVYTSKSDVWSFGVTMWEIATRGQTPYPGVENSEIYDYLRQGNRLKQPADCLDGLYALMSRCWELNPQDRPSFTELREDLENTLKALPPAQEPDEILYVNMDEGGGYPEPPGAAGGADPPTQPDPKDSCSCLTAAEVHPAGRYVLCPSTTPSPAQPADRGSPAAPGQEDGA

[22] = biological target: Mitogen-activated protein kinase 3 (Homo sapiens) (UniProt P27361); experiment: Inhibition of wild-type human full length ERK1 (M1 to P379 residues) expressed in bacterial expression system assessed as residual activity at 50 nM by Kinomescan method relative to control
[23] = biological target: Insulin receptor-related protein (Homo sapiens) (UniProt P14616); experiment: Inhibition of wild-type human partial length IRR (R950 to E1278 residues) expressed in bacterial expression system assessed as residual activity at 50 nM by Kinomescan method relative to control
[24] = biological target: Bone morphogenetic protein receptor type-2 (Homo sapiens) (UniProt Q13873); experiment: Inhibition of wild-type human partial length BMPR2 (R179 to Q526 residues) expressed in mammalian expression system assessed as residual activity at 50 nM by Kinomescan method relative to control
Bone morphogenetic protein receptor type-2 (Homo sapiens), sequence (Q13873 whole entry, the tested form may be a part): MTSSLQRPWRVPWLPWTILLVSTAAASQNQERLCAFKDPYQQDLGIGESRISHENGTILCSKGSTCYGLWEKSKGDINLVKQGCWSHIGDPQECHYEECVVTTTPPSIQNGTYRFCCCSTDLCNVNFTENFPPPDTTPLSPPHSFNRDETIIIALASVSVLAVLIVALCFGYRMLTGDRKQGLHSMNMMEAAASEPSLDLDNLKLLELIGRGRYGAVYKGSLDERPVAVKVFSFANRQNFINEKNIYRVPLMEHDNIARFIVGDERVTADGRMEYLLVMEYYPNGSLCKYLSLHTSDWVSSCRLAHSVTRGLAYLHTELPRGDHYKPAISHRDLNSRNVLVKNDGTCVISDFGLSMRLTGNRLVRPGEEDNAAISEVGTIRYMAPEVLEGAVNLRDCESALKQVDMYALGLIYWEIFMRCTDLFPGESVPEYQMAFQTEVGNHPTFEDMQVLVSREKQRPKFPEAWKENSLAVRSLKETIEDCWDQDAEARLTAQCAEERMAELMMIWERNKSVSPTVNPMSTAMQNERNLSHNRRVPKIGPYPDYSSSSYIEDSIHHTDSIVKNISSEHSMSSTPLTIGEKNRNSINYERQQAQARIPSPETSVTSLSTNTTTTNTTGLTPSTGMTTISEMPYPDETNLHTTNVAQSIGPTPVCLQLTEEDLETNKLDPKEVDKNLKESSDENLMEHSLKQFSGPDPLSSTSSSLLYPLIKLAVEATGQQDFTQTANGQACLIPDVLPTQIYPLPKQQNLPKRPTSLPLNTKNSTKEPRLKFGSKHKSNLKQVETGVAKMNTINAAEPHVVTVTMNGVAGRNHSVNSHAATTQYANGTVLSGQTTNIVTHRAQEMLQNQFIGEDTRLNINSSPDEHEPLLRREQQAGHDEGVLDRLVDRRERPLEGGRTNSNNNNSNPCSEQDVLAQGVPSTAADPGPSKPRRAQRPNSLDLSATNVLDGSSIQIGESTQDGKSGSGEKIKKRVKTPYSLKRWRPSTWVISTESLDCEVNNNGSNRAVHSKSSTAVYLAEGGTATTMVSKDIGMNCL

For CC1(C)[C@H](Nc2c(C(N)=O)cnn3cc(-c4ccccc4)cc23)CC[C@]1(C)N, the Activity [1] was 100%, the Activity [2] was 93% and the Activity [3] was 100%. It also gave an Activity [4] of 100%, an Activity [5] of 83% and an Activity [6] of 100%. It also gave an Activity [7] of 87%, an Activity [8] of 100% and an Activity [9] of 81%. It also gave an Activity [10] of 98%, an Activity [11] of 100% and an Activity [12] of 67%. For the same compound, the Activity [13] was 88%, the IC50 [14] was 7.5 nM and the Activity [15] was 64%. It also gave an Activity [16] of 88%, an Activity [17] of 89% and an Activity [18] of 47%. It also gave an Activity [19] of 100%, an Activity [20] of 82% and an activity at 0.05 µM (JAK2) of 3.9%. The Activity [21] was 90%, the Activity [22] was 93% and the Activity [23] was 100%. For the same compound, the Activity [24] was 93%.

COc1ccc(-c2cc3c(N[C@@H]4CC[C@](C)(N)C4(C)C)c(C(N)=O)cnn3c2)cn1 gave an Activity [1] of 100%, an Activity [2] of 84% and an Activity [3] of 100%. It also gave an Activity [4] of 100%, an Activity [5] of 97% and an Activity [6] of 89%. The Activity [7] was 100%, the Activity [8] was 100% and the Activity [9] was 88%. It also gave an Activity [10] of 85%, an Activity [11] of 100% and an Activity [12] of 99%. The Activity [13] was 96%, the IC50 [14] was 25 nM and the Activity [15] was 98%. It also gave an Activity [16] of 88%, an Activity [17] of 94% and an Activity [18] of 74%. For the same compound, the Activity [19] was 100%, the Activity [20] was 91% and the activity at 0.05 µM (JAK2) was 17%. It also gave an Activity [21] of 96%, an Activity [22] of 100% and an Activity [23] of 92%. The Activity [24] was 100%.
